The record followed here is patent publication US20260022142A1, “MACROCYCLIC IMMUNOMODULATORS” (Bristol-Myers Squibb Company, priority 2022, published 2026).

Numbered stars: 1 amine (or outer) side, 2 acyl side, 3 side chain; on linkers, the order of the positions; unused ones are H or OH. Bridge positions count the residues as written; N and C are the ends. Square brackets hold non-standard residues; d marks the D form. Peptide text beside a SMILES is read from it. * marks the point of attachment. ξ: configuration not given here. Bip = N[C@@H](Cc1ccc(-c2ccccc2)cc1)C(=O)O; γGlu = O=C(O)[C@H](CCC(=O)[*:2])N[*:1]; Cha = N[C@@H](CC1CCCCC1)C(=O)O; Thr(3ξ) = CC(O)[C@H](N)C(=O)O; Carboxymethyl = O=C(O)C*; Orn = NCCC[C@H](N)C(=O)O; Aun = NCCCCCCCCCCC(=O)O; Dab = NCC[C@H](N)C(=O)O; Dap = NC[C@H](N)C(=O)O; AEEA = NCCOCCOCC(=O)O

By IC50 is commonly meant the point on the concentration scale where inhibition reaches its midpoint.

For the assay, the target named is T1, PD-1/PD-L1 interaction (PE-labeled human PD-L1-Ig binding to Jurkat cell line over-expressing human PD-1) (Homo sapiens, UniProt Q15116).
T1 construct: expressed in transfected cells; host or cells: Jurkat
T1 sequence (Q15116 25-288): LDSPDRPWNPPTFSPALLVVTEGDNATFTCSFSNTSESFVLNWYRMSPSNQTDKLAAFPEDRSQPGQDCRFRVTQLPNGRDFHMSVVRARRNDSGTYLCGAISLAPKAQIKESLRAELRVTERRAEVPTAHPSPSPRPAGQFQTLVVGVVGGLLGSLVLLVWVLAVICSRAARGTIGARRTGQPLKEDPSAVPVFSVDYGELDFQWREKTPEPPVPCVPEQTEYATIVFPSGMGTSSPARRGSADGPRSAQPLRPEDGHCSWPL
Put plainly: Jurkat-PD-1 Cell Binding High-Content Screening Assay (CBA). As to conditions: Jurkat cell line over-expressing human PD-1; PE-labeled PD-L1-Ig 20 nM final; read-out: Jurkat hPD1-PDL1 IC50. It is filed as cell-based. The method, boiled down:
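Binding of fluorescent PD-L1-Ig (phycoerythrin on Ig tag, 20 nM final, 1 h) measured by high-content imaging of fixed, Hoechst-counterstained Jurkat-hPD-1 cells. Compound added 2 h at 37° C beforehand, in DMEM with 10% fetal calf serum.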
As for `CC(C)C[C@H]1NC(=O)[C@H](CCCN)NC(=O)[C@H](C(C)C)NC(=O)[C@H](Cc2ccc(-c3ccccc3)cc2)NC(=O)[C@H](C(C)C)NC(=O)[C@H](Cc2c[nH]c3ccccc23)NC(=O)[C@H](CC(=O)O)NC(=O)[C@H](Cc2ccc(OCC(=O)O)cc2)NC(=O)[C@H](C(C)O)NC(=O)CSC[C@@H](C(=O)N[C@@H](CCN)C(=O)NCCCCCCCCCCC(=O)O)NC(=O)[C@H](CCN)NC(=O)[C@H](C(C)O)NC(=O)[C@H](CC2CCCCC2)NC(=O)[C@H](CCN)NC1=O` (stereo partly drawn) [Compound 3674] ({CH2CO}-[Thr(3ξ)]Y(Carboxymethyl)DWV[Bip]V[Orn][dL][Dab][Cha][Thr(3ξ)][Dab]C[Dab][Aun]-OH; thioether N-14), the concentration for half-maximal inhibition (IC50) was 13.4 nM.

Consider `CC(C)C[C@H]1NC(=O)[C@H](CCCN)NC(=O)[C@H](C(C)C)NC(=O)[C@H](Cc2ccc(-c3ccccc3)cc2)NC(=O)[C@H](C(C)C)NC(=O)[C@H](Cc2c[nH]c3ccccc23)NC(=O)[C@H](CC(=O)O)NC(=O)[C@H](Cc2ccc(OCC(=O)O)cc2)NC(=O)[C@H](C(C)O)NC(=O)CSC[C@@H](C(=O)N[C@@H](CCN)C(=O)NCCCCCCCCCCC(=O)O)NC(=O)[C@H](CCCN)NC(=O)[C@H](C(C)O)NC(=O)[C@H](CC2CCCCC2)NC(=O)[C@H](CCN)NC1=O` (stereo partly drawn) [Compound 3675] ({CH2CO}-[Thr(3ξ)]Y(Carboxymethyl)DWV[Bip]V[Orn][dL][Dab][Cha][Thr(3ξ)][Orn]C[Dab][Aun]-OH; thioether N-14), for which the IC50 is 19.3 nM.

As for `CC(C)C[C@H]1NC(=O)[C@H](CCCN)NC(=O)[C@H](C(C)C)NC(=O)[C@H](Cc2ccc(-c3ccccc3)cc2)NC(=O)[C@H](C(C)C)NC(=O)[C@H](Cc2c[nH]c3ccccc23)NC(=O)[C@H](CC(=O)O)NC(=O)[C@H](Cc2ccc(OCC(=O)O)cc2)NC(=O)[C@H](CN)NC(=O)CSC[C@@H](C(=O)N[C@@H](CCN)C(=O)NCCCCCCCCCCC(=O)O)NC(=O)[C@H](CCN)NC(=O)[C@H](C(C)O)NC(=O)[C@H](CC2CCCCC2)NC(=O)[C@H](CCN)NC1=O` (stereo partly drawn) [Compound 3676] ({CH2CO}-[Dap]Y(Carboxymethyl)DWV[Bip]V[Orn][dL][Dab][Cha][Thr(3ξ)][Dab]C[Dab][Aun]-OH; thioether N-14), the half-inhibitory concentration (IC50) was determined as 9.2 nM.

As for `CC(C)C[C@H]1NC(=O)[C@H](CCCN)NC(=O)[C@H](C(C)C)NC(=O)[C@H](Cc2ccc(-c3ccccc3)cc2)NC(=O)[C@H](C(C)C)NC(=O)[C@H](Cc2c[nH]c3ccccc23)NC(=O)[C@H](CC(=O)O)NC(=O)[C@H](Cc2ccc(OCC(=O)O)cc2)NC(=O)[C@H](CN)NC(=O)CSC[C@@H](C(=O)N[C@@H](CCN)C(=O)NCCCCCCCCCCC(=O)O)NC(=O)[C@H](CCCN)NC(=O)[C@H](C(C)O)NC(=O)[C@H](CC2CCCCC2)NC(=O)[C@H](CCN)NC1=O` (stereo partly drawn) [Compound 3677] ({CH2CO}-[Dap]Y(Carboxymethyl)DWV[Bip]V[Orn][dL][Dab][Cha][Thr(3ξ)][Orn]C[Dab][Aun]-OH; thioether N-14), the IC50 is 11.3 nM.

Regarding `CC(C)C[C@H]1NC(=O)[C@H](CCCN)NC(=O)[C@H](C(C)C)NC(=O)[C@H](Cc2ccc(-c3ccccc3)cc2)NC(=O)[C@H](C(C)C)NC(=O)[C@H](Cc2c[nH]c3ccccc23)NC(=O)[C@H](CC(=O)O)NC(=O)[C@H](Cc2ccc(OCC(=O)O)cc2)NC(=O)[C@H](C(C)O)NC(=O)CSC[C@@H](C(=O)N[C@@H](CCN)C(=O)NCCOCCOCC(=O)N[C@@H](CCC(=O)NCCCCCCCCCCC(=O)O)C(=O)O)NC(=O)[C@H](CCN)NC(=O)[C@H](C(C)O)NC(=O)[C@H](CC2CCCCC2)NC(=O)[C@H](CCN)NC1=O` (stereo partly drawn) [Compound 3678] ({CH2CO}-[Thr(3ξ)]Y(Carboxymethyl)DWV[Bip]V[Orn][dL][Dab][Cha][Thr(3ξ)][Dab]C[Dab][AEEA][γGlu][Aun]-OH; thioether N-14), the IC50 came to 9.2 nM.

In the case of `CC(C)C[C@H]1NC(=O)[C@H](CCCN)NC(=O)[C@H](C(C)C)NC(=O)[C@H](Cc2ccc(-c3ccccc3)cc2)NC(=O)[C@H](C(C)C)NC(=O)[C@H](Cc2c[nH]c3ccccc23)NC(=O)[C@H](CC(=O)O)NC(=O)[C@H](Cc2ccc(OCC(=O)O)cc2)NC(=O)[C@H](CN)NC(=O)CSC[C@@H](C(=O)N[C@@H](CCN)C(=O)NCCOCCOCC(=O)N[C@@H](CCC(=O)NCCCCCCCCCCC(=O)O)C(=O)O)NC(=O)[C@H](CCN)NC(=O)[C@H](C(C)O)NC(=O)[C@H](CC2CCCCC2)NC(=O)[C@H](CCN)NC1=O` (stereo partly drawn) [Compound 3679] ({CH2CO}-[Dap]Y(Carboxymethyl)DWV[Bip]V[Orn][dL][Dab][Cha][Thr(3ξ)][Dab]C[Dab][AEEA][γGlu][Aun]-OH; thioether N-14), the IC50 is 9.6 nM.

For `CC(C)C[C@H]1NC(=O)[C@H](CCCN)NC(=O)[C@H](C(C)C)NC(=O)[C@H](Cc2ccc(-c3ccccc3)cc2)NC(=O)[C@H](C(C)C)NC(=O)[C@H](Cc2c[nH]c3ccccc23)NC(=O)[C@H](CC(=O)O)NC(=O)[C@H](Cc2ccc(OCC(=O)O)cc2)NC(=O)[C@H](CN)NC(=O)CSC[C@@H](C(=O)N[C@@H](CCN)C(=O)NCCOCCOCC(=O)N[C@@H](CCC(=O)NCCCCCCCCCCC(=O)O)C(=O)O)NC(=O)[C@H](CCCN)NC(=O)[C@H](C(C)O)NC(=O)[C@H](CC2CCCCC2)NC(=O)[C@H](CCN)NC1=O` (stereo partly drawn) [Compound 3680] ({CH2CO}-[Dap]Y(Carboxymethyl)DWV[Bip]V[Orn][dL][Dab][Cha][Thr(3ξ)][Orn]C[Dab][AEEA][γGlu][Aun]-OH; thioether N-14), the IC50 came out at 15.8 nM.

Regarding `CC(C)C[C@@H]1NC(=O)[C@H](Cc2c[nH]c3ccccc23)NC(=O)[C@H](CC(=O)O)NC(=O)[C@H](Cc2ccc(OCC(=O)O)cc2)NC(=O)[C@H](CN)NC(=O)CSC[C@@H](C(=O)N[C@@H](CCN)C(=O)NCCCCCCCCCCC(=O)O)NC(=O)[C@H](CCN)NC(=O)[C@H](C(C)O)NC(=O)[C@H](CC2CCCCC2)NC(=O)[C@H](CCN)NC(=O)[C@@H](CC(C)C)NC(=O)[C@H](CCCN)NC(=O)[C@H](Cc2ccc(O)cc2)NC(=O)[C@H](Cc2ccc(-c3ccccc3)cc2)NC1=O` (stereo partly drawn) [Compound 3681] ({CH2CO}-[Dap]Y(Carboxymethyl)DWL[Bip]Y[Orn][dL][Dab][Cha][Thr(3ξ)][Dab]C[Dab][Aun]-OH; thioether N-14), the concentration for half-maximal inhibition (IC50) was determined as 71.7 nM.

On to `CC(C)C[C@@H]1NC(=O)[C@H](Cc2c[nH]c3ccccc23)NC(=O)[C@H](CC(=O)O)NC(=O)[C@H](Cc2ccc(OCC(=O)O)cc2)NC(=O)[C@H](CN)NC(=O)CSC[C@@H](C(=O)N[C@@H](CCN)C(=O)NCCCCCCCCCCC(=O)O)NC(=O)[C@H](CCCN)NC(=O)[C@H](C(C)O)NC(=O)[C@H](CC2CCCCC2)NC(=O)[C@H](CCN)NC(=O)[C@@H](CC(C)C)NC(=O)[C@H](CCCN)NC(=O)[C@H](Cc2ccc(O)cc2)NC(=O)[C@H](Cc2ccc(-c3ccccc3)cc2)NC1=O` (stereo partly drawn) [Compound 3682] ({CH2CO}-[Dap]Y(Carboxymethyl)DWL[Bip]Y[Orn][dL][Dab][Cha][Thr(3ξ)][Orn]C[Dab][Aun]-OH; thioether N-14), for which the IC50 is 51.4 nM.

In the case of `CC(C)C[C@@H]1NC(=O)[C@H](Cc2c[nH]c3ccccc23)NC(=O)[C@H](CC(=O)O)NC(=O)[C@H](Cc2ccc(OCC(=O)O)cc2)NC(=O)[C@H](C(C)O)NC(=O)CSC[C@@H](C(=O)N[C@@H](CCN)C(=O)NCCCCCCCCCCC(=O)O)NC(=O)[C@H](CCN)NC(=O)[C@H](C(C)O)NC(=O)[C@H](CC2CCCCC2)NC(=O)[C@H](CCN)NC(=O)[C@@H](CC(C)C)NC(=O)[C@H](CCCN)NC(=O)[C@H](Cc2ccc(O)cc2)NC(=O)[C@H](Cc2ccc(-c3ccccc3)cc2)NC1=O` (stereo partly drawn) [Compound 3683] ({CH2CO}-[Thr(3ξ)]Y(Carboxymethyl)DWL[Bip]Y[Orn][dL][Dab][Cha][Thr(3ξ)][Dab]C[Dab][Aun]-OH; thioether N-14), the half-inhibitory concentration (IC50) was found to be 118 nM.

As for `CC(C)C[C@@H]1NC(=O)[C@H](Cc2c[nH]c3ccccc23)NC(=O)[C@H](CC(=O)O)NC(=O)[C@H](Cc2ccc(OCC(=O)O)cc2)NC(=O)[C@H](C(C)O)NC(=O)CSC[C@@H](C(=O)N[C@@H](CCN)C(=O)NCCCCCCCCCCC(=O)O)NC(=O)[C@H](CCCN)NC(=O)[C@H](C(C)O)NC(=O)[C@H](CC2CCCCC2)NC(=O)[C@H](CCN)NC(=O)[C@@H](CC(C)C)NC(=O)[C@H](CCCN)NC(=O)[C@H](Cc2ccc(O)cc2)NC(=O)[C@H](Cc2ccc(-c3ccccc3)cc2)NC1=O` (stereo partly drawn) [Compound 3684] ({CH2CO}-[Thr(3ξ)]Y(Carboxymethyl)DWL[Bip]Y[Orn][dL][Dab][Cha][Thr(3ξ)][Orn]C[Dab][Aun]-OH; thioether N-14), the 50% inhibitory concentration (IC50) is 77.1 nM.

Regarding `CC(C)C[C@@H]1NC(=O)[C@H](Cc2c[nH]c3ccccc23)NC(=O)[C@H](CC(=O)O)NC(=O)[C@H](Cc2ccc(OCC(=O)O)cc2)NC(=O)[C@H](CN)NC(=O)CSC[C@@H](C(=O)N[C@@H](CCN)C(=O)NCCCCCCCCCCC(=O)O)NC(=O)[C@H](CO)NC(=O)[C@H](C(C)O)NC(=O)[C@H](CC2CCCCC2)NC(=O)[C@H](CCN)NC(=O)[C@@H](CC(C)C)NC(=O)[C@H](CCCN)NC(=O)[C@H](C(C)C)NC(=O)[C@H](Cc2ccc(-c3ccccc3)cc2)NC1=O` (stereo partly drawn) [Compound 3685] ({CH2CO}-[Dap]Y(Carboxymethyl)DWL[Bip]V[Orn][dL][Dab][Cha][Thr(3ξ)]SC[Dab][Aun]-OH; thioether N-14), the concentration for half-maximal inhibition (IC50) turned out to be 30.2 nM.

With `CC(C)C[C@@H]1NC(=O)[C@H](Cc2c[nH]c3ccccc23)NC(=O)[C@H](CC(=O)O)NC(=O)[C@H](Cc2ccc(OCC(=O)O)cc2)NC(=O)[C@H](C(C)O)NC(=O)CSC[C@@H](C(=O)N[C@@H](CCN)C(=O)NCCCCCCCCCCC(=O)O)NC(=O)[C@H](CCCN)NC(=O)[C@H](C(C)O)NC(=O)[C@H](CC2CCCCC2)NC(=O)[C@H](CCN)NC(=O)[C@@H](CC(C)C)NC(=O)[C@H](CCCN)NC(=O)[C@H](C(C)C)NC(=O)[C@H](Cc2ccc(-c3ccccc3)cc2)NC1=O` (stereo partly drawn) [Compound 3686] ({CH2CO}-[Thr(3ξ)]Y(Carboxymethyl)DWL[Bip]V[Orn][dL][Dab][Cha][Thr(3ξ)][Orn]C[Dab][Aun]-OH; thioether N-14), the IC50 is 27.6 nM.
